15 compounds from PubChem BioAssay AID328 (DTP/NCI, 2004) can be followed below.

Values joined by “and” are separate entries in the source; they are usually repeats but may differ in a detail not shown here. Equal values may be shown once. Inconclusive results and toxic doses are left out. Starred links: 1 amine or outer side, 2 acyl side, 3 side chain; linkers in the order of their positions; H or OH if unused. Positions of bridges follow the written chain, without caps; N, C: chain ends. Non-standard residues stand in square brackets, D forms with d. Residues, ends and D or L forms follow the SMILES beside them. Chains are numbered I, II in the order given. Actinocin(1to9) = Cc1c2oc3c(C)ccc(C(=O)[*:2])c3nc-2c(C(=O)[*:1])c(N)c1=O; NMeV = CN[CH](C(=O)O)C(C)C; Aze = O=C(O)[CH]1CCN1; Sar = CNCC(=O)O

In the test the test system is BDF1 mice, P388 leukemia ip, median survival T/C. Briefly: NCI In Vivo Anticancer Drug Screen. Data for tumor model P388 Leukemia (intraperitoneal) in B6D2F1 (BDF1) mice. The note with it: endpoint: median survival time, higher = longer survival. The procedure, abridged: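 Each value expresses how treatment altered survival: treated-mouse outcome over vehicle-mouse outcome, both groups bearing the transplanted tumour.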

The mark [1] stands for this setting: dose: 100.0 mg/kg/injection, schedule: Q01DX009 (ip), vehicle: saline with Tween-80.
Setting [2] is: dose: 200.0 mg/kg/injection, schedule: Q01DX009 (ip), vehicle: saline with Tween-80.
Where [3] appears, read: dose: 12.5 mg/kg/injection, schedule: Q01DX009 (ip), vehicle: Klucel (hydroxypropylcellulose) (HPC).
Where [4] appears, read: dose: 25.0 mg/kg/injection, schedule: Q01DX009 (ip), vehicle: Klucel (hydroxypropylcellulose) (HPC).
The mark [5] stands for this setting: dose: 50.0 mg/kg/injection, schedule: Q01DX009 (ip), vehicle: saline.
The mark [6] stands for this setting: dose: 100.0 mg/kg/injection, schedule: Q01DX009 (ip), vehicle: saline.
Where [7] appears, read: dose: 200.0 mg/kg/injection, schedule: Q01DX009 (ip), vehicle: saline.

Regarding `Cc1c2oc3c(C)ccc(C(=O)NC4C(=O)NC(C(C)C)C(=O)N5CCCC5C(=O)N(C)CC(=O)N(C)C(C(C)C)C(=O)OC4C)c3nc-2c(C(=O)NC2C(=O)NC(C(C)C)C(=O)N3CCC3C(=O)N(C)CC(=O)N(C)C(C(C)C)C(=O)OC2C)c(N)c1=O` (stereo unspecified) (I: TV[Aze][Sar][NMeV] / II: TVP[Sar][NMeV]; ester I:1-I:C, II:1-II:C; linker I:N-II:N via Actinocin(1to9); configuration not given here), the T/C was 201 % of control (dose: 0.26 mg/kg/injection, schedule: Q04DX003 (ip), vehicle: saline); 265 % of control and 168 % of control (dose: 0.3 mg/kg/injection, schedule: Q04DX003 (ip), vehicle: saline + alcohol); 250 % of control (dose: 0.4 mg/kg/injection, schedule: Q04DX003 (ip), vehicle: saline); 256 % of control and 223 % of control (dose: 0.45 mg/kg/injection, schedule: Q04DX003 (ip), vehicle: saline + alcohol); 230 % of control and 159 % of control (dose: 0.6 mg/kg/injection, schedule: Q04DX003 (ip), vehicle: saline + alcohol); 373 % of control (dose: 0.6 mg/kg/injection, schedule: Q04DX003 (ip), vehicle: saline). Further, the T/C is, setting by setting: (dose: 0.9 mg/kg/injection, schedule: Q04DX003 (ip), vehicle: saline + alcohol) 123 % of control and 219 % of control; (dose: 0.9 mg/kg/injection, schedule: Q04DX003 (ip), vehicle: saline) 551 % of control; (dose: 1.2 mg/kg/injection, schedule: Q04DX003 (ip), vehicle: saline + alcohol) 97 % of control and 117 % of control; (dose: 1.3 mg/kg/injection, schedule: Q04DX003 (ip), vehicle: saline) 551 % of control; (dose: 12.5 micrograms/kg/injection, schedule: Q01DX009 (ip), vehicle: saline + alcohol) 197 % of control; (dose: 25.0 micrograms/kg/injection, schedule: Q01DX009 (ip), vehicle: saline + alcohol) 218 % of control. Also, the T/C reads like this: (dose: 50.0 micrograms/kg/injection, schedule: Q01DX009 (ip), vehicle: saline + alcohol) 263 % of control; (dose: 75.0 micrograms/kg/injection, schedule: Q04DX003 (ip), vehicle: saline + alcohol) 205 % of control; (dose: 100.0 micrograms/kg/injection, schedule: Q01DX009 (ip), vehicle: saline + alcohol) 270 % of control; (dose: 112.5 micrograms/kg/injection, schedule: Q01DX009 (ip), vehicle: saline + alcohol) 265 % of control; (dose: 150.0 micrograms/kg/injection, schedule: Q01DX009 (ip), vehicle: saline + alcohol) 212 % of control; (dose: 150.0 micrograms/kg/injection, schedule: Q04DX003 (ip), vehicle: saline + alcohol) 226 % of control and 153 % of control. Besides, the T/C was 622 % of control (dose: 200.0 micrograms/kg/injection, schedule: Q01DX009 (ip), vehicle: saline + alcohol); 105 % of control (dose: 225.0 micrograms/kg/injection, schedule: Q01DX009 (ip), vehicle: saline + alcohol); 95 % of control (dose: 300.0 micrograms/kg/injection, schedule: Q01DX009 (ip), vehicle: saline + alcohol); 250 % of control and 197 % of control (dose: 300.0 micrograms/kg/injection, schedule: Q04DX003 (ip), vehicle: saline + alcohol); 94 % of control (dose: 450.0 micrograms/kg/injection, schedule: Q01DX009 (ip), vehicle: saline + alcohol); 385 % of control and 388 % of control (dose: 600.0 micrograms/kg/injection, schedule: Q04DX003 (ip), vehicle: saline + alcohol). The T/C (dose: 1200.0 micrograms/kg/injection, schedule: Q04DX003 (ip), vehicle: saline + alcohol) was 104 % of control.

As for `C(=C/c1ccnc2ccccc12)/c1cccs1`, the T/C is 102 % of control (dose: 25.0 mg/kg/injection, schedule: Q01DX009 (ip), vehicle: saline with Tween-80); 110 % of control (dose: 50.0 mg/kg/injection, schedule: Q01DX009 (ip), vehicle: saline with Tween-80); 111 % of control under setting [1]; 119 % of control under setting [2].

For the compound `CCCCN=C(N)c1ccc(NC(=O)c2ccc(C(=O)Nc3ccc(C(N)=NCCCC)cc3)cc2)cc1`, the T/C is, setting by setting: (dose: 15.0 mg/kg/injection, schedule: Q04DX003 (ip), vehicle: saline with Tween-80) 122 % of control; (dose: 26.0 mg/kg/injection, schedule: Q04DX003 (ip), vehicle: saline with Tween-80) 154 % of control; (dose: 30.0 mg/kg/injection, schedule: Q01DX009 (ip), vehicle: saline with Tween-80) 196 % of control; (dose: 30.0 mg/kg/injection, schedule: Q04DX003 (ip), vehicle: saline with Tween-80) 158 % of control and 181 % of control; (dose: 40.0 mg/kg/injection, schedule: Q04DX003 (ip), vehicle: saline with Tween-80) 166 % of control and 181 % of control; (dose: 45.0 mg/kg/injection, schedule: Q04DX003 (ip), vehicle: saline with Tween-80) 179 % of control. Besides, the T/C (dose: 60.0 mg/kg/injection, schedule: Q04DX003 (ip), vehicle: saline with Tween-80) is 163 % of control and 183 % of control and 186 % of control; the T/C (dose: 90.0 mg/kg/injection, schedule: Q04DX003 (ip), vehicle: saline with Tween-80) is 204 % of control.

`CC(=O)C(C#N)c1ccccc1` (stereo unspecified): the T/C under setting [3] was 118 % of control; the T/C under setting [4] is 109 % of control; the T/C (dose: 50.0 mg/kg/injection, schedule: Q01DX009 (ip), vehicle: Klucel (hydroxypropylcellulose) (HPC)) was 90 % of control.

In the case of `CC1(O)c2ccccc2-c2nc3ccccc3nc21` (stereo unspecified), the T/C was 104 % of control under setting [1]; 100 % of control under setting [2]; 118 % of control (dose: 400.0 mg/kg/injection, schedule: Q01DX009 (ip), vehicle: saline with Tween-80).

For the compound `COc1ccc(CC2c3cc(OC)c(OC)cc3CC[N+]2(C)C)cc1OC` (stereo unspecified), the T/C reads like this: (dose: 12.5 mg/kg/injection, schedule: Q01DX009 (ip), vehicle: saline sonified) 108 % of control; (dose: 25.0 mg/kg/injection, schedule: Q01DX009 (ip), vehicle: saline sonified) 100 % of control; (dose: 50.0 mg/kg/injection, schedule: Q01DX009 (ip), vehicle: saline sonified) 91 % of control.

Consider `NNC(=O)NO`, for which the T/C (dose: 25.0 mg/kg/injection, schedule: Q04DX003 (ip), vehicle: saline) was 95 % of control; the T/C (dose: 50.0 mg/kg/injection, schedule: Q04DX003 (ip), vehicle: saline) is 104 % of control; the T/C (dose: 100.0 mg/kg/injection, schedule: Q04DX003 (ip), vehicle: saline) is 100 % of control.

For `CN1CCOC1=Nc1ccc(Cl)cc1`, the T/C is 104 % of control (dose: 50.0 mg/kg/injection, schedule: Q04DX003 (ip), vehicle: saline with Tween-80); 86 % of control and 100 % of control (dose: 100.0 mg/kg/injection, schedule: Q04DX003 (ip), vehicle: saline with Tween-80); 95 % of control (dose: 200.0 mg/kg/injection, schedule: Q04DX003 (ip), vehicle: saline with Tween-80); 90 % of control (dose: 400.0 mg/kg/injection, schedule: Q04DX003 (ip), vehicle: saline with Tween-80).

As to `c1ccc2c(NCCCCCCCCNc3c4ccccc4nc4ccccc34)c3ccccc3nc2c1`, the T/C is, setting by setting: (dose: 2.5 mg/kg/injection, schedule: Q01DX009 (ip), vehicle: Klucel (hydroxypropylcellulose) (HPC)) 112 % of control; (dose: 20.0 mg/kg/injection, schedule: Q01DX009 (ip), vehicle: Klucel (hydroxypropylcellulose) (HPC)) 100 % of control.

Regarding `COC1=C(C2(O)C(=O)N(C)c3ccccc32)C(=O)C(OC)=C(C2(O)C(=O)N(C)c3ccccc32)C1=O` (stereo unspecified), the T/C by setting is: (dose: 100.0 mg/kg/injection, schedule: Q01DX001 (ip), vehicle: saline with Tween-80) 91 % of control; (dose: 200.0 mg/kg/injection, schedule: Q01DX001 (ip), vehicle: saline with Tween-80) 89 % of control; (dose: 400.0 mg/kg/injection, schedule: Q01DX001 (ip), vehicle: saline with Tween-80) 90 % of control.

In the case of `CCCCNC1=CC(=O)CC(C)(C)C1`, the T/C is, setting by setting: under setting [5], 105 % of control; under setting [6], 111 % of control; under setting [7], 107 % of control.

Regarding `Clc1c(CBr)c(Cl)c(CBr)c(Cl)c1CBr`, the T/C under setting [3] is 113 % of control and the T/C under setting [4] was 122 % of control.

For `Cc1ccc(N)c(CSc2ccccc2)c1`, the T/C is 95 % of control (dose: 50.0 mg/kg/injection, schedule: Q04DX002 (ip), vehicle: saline with Tween-80); 97 % of control (dose: 100.0 mg/kg/injection, schedule: Q04DX002 (ip), vehicle: saline with Tween-80); 98 % of control (dose: 200.0 mg/kg/injection, schedule: Q04DX002 (ip), vehicle: saline with Tween-80).

As for `O=C(c1ccccc1)N1CCC2OC2C1` (stereo unspecified), the T/C was 94 % of control under setting [5], 109 % of control under setting [6] and 100 % of control under setting [7].

With `[I][Hg][CH2]C1OCCOC1[CH2][Hg][I]` (stereo unspecified), the T/C under setting [1] is 116 % of control and the T/C under setting [2] was 116 % of control.
